In PubChem BioAssay (NCI):
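Method: 48-hour compound exposure of cells in 96-well plates, five concentrations, linear interpolation of endpoints. The concentration for 50% growth inhibition is given as GI50. TGI denotes the concentration required for complete inhibition of growth.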

Columns and labels:
Assay in all cases: NCI-60 cell line screen, 48 h
786-0 renal = test system: 786-0 renal
A498 renal = test system: A498 renal
A549 NSCLC = test system: A549 NSCLC
ACHN renal = test system: ACHN renal
BT-549 breast = test system: BT-549 breast
CAKI-1 renal = test system: CAKI-1 renal
CCRF-CEM leukemia = test system: CCRF-CEM leukemia
COLO 205 colon = test system: COLO 205 colon
DU-145 prostate = test system: DU-145 prostate
EKVX NSCLC = test system: EKVX NSCLC
HCC-2998 colon = test system: HCC-2998 colon
HCT-116 colon = test system: HCT-116 colon
HCT-15 colon = test system: HCT-15 colon
HOP-62 NSCLC = test system: HOP-62 NSCLC
HOP-92 NSCLC = test system: HOP-92 NSCLC
HS 578T breast = test system: HS 578T breast
HT29 colon = test system: HT29 colon
IGROV1 ovarian = test system: IGROV1 ovarian
K-562 leukemia = test system: K-562 leukemia
KM12 colon = test system: KM12 colon
LOX IMVI melanoma = test system: LOX IMVI melanoma
M14 melanoma = test system: M14 melanoma
MCF7 breast = test system: MCF7 breast
MDA-MB-231 breast = test system: MDA-MB-231 breast
MDA-MB-435 = test system: MDA-MB-435
MDA-N = test system: MDA-N
MOLT-4 leukemia = test system: MOLT-4 leukemia
NCI-H23 lung = test system: NCI-H23 lung
NCI-H460 lung = test system: NCI-H460 lung
NCI-H522 lung = test system: NCI-H522 lung
NCI/ADR-RES ovarian = test system: NCI/ADR-RES ovarian
OVCAR-3 ovarian = test system: OVCAR-3 ovarian
OVCAR-4 ovarian = test system: OVCAR-4 ovarian
OVCAR-5 ovarian = test system: OVCAR-5 ovarian
OVCAR-8 ovarian = test system: OVCAR-8 ovarian
PC-3 prostate = test system: PC-3 prostate
RPMI-8226 leukemia = test system: RPMI-8226 leukemia
SF-268 CNS = test system: SF-268 CNS
SF-295 CNS = test system: SF-295 CNS
SF-539 CNS = test system: SF-539 CNS
SK-MEL-2 melanoma = test system: SK-MEL-2 melanoma
SK-MEL-28 melanoma = test system: SK-MEL-28 melanoma
SK-MEL-5 melanoma = test system: SK-MEL-5 melanoma
SK-OV-3 ovarian = test system: SK-OV-3 ovarian
SN12C renal = test system: SN12C renal
SNB-19 CNS = test system: SNB-19 CNS
SR leukemia = test system: SR leukemia
SW-620 colon = test system: SW-620 colon
T-47D breast = test system: T-47D breast
TK-10 renal = test system: TK-10 renal
U251 CNS = test system: U251 CNS
UACC-257 melanoma = test system: UACC-257 melanoma
UACC-62 melanoma = test system: UACC-62 melanoma
UO-31 renal = test system: UO-31 renal
HL-60(TB) leukemia = test system: HL-60(TB) leukemia
MALME-3M melanoma = test system: MALME-3M melanoma
NCI-H226 lung = test system: NCI-H226 lung
SNB-75 CNS = test system: SNB-75 CNS

## CCCCCCNC(=O)c1cc(C#Cc2cc(OC)ccc2OC)ccc1OC
786-0 renal
  TGI: > 100 µM
A498 renal
  TGI: > 100 µM
A549 NSCLC
  TGI: > 100 µM
ACHN renal
  TGI: > 100 µM
BT-549 breast
  TGI: > 100 µM
CAKI-1 renal
  TGI: > 100 µM
CCRF-CEM leukemia
  GI50: 7.9 µM
  TGI: > 100 µM
COLO 205 colon
  TGI: > 100 µM
DU-145 prostate
  GI50: > 100 µM
  TGI: > 100 µM
EKVX NSCLC
  TGI: > 100 µM
HCC-2998 colon
  TGI: 6.25 µM
HCT-116 colon
  GI50: 6.9 µM
  TGI: > 100 µM
HCT-15 colon
  TGI: > 100 µM
HOP-62 NSCLC
  GI50: 11.8 µM
  TGI: > 100 µM
HOP-92 NSCLC
  TGI: > 100 µM
HS 578T breast
  TGI: > 100 µM
HT29 colon
  TGI: > 100 µM
IGROV1 ovarian
  TGI: > 100 µM
K-562 leukemia
  TGI: > 100 µM
KM12 colon
  TGI: > 100 µM
LOX IMVI melanoma
  TGI: > 100 µM
M14 melanoma
  TGI: > 100 µM
MCF7 breast
  TGI: > 100 µM
MDA-MB-231 breast
  TGI: > 100 µM
MDA-MB-435
  TGI: 13.4 µM
MDA-N
  TGI: > 100 µM
MOLT-4 leukemia
  TGI: > 100 µM
NCI-H23 lung
  TGI: > 100 µM
NCI-H460 lung
  TGI: > 100 µM
NCI-H522 lung
  TGI: > 100 µM
NCI/ADR-RES ovarian
  TGI: > 100 µM
OVCAR-3 ovarian
  GI50: > 100 µM
  TGI: > 100 µM
OVCAR-4 ovarian
  TGI: > 100 µM
OVCAR-5 ovarian
  TGI: > 100 µM
OVCAR-8 ovarian
  TGI: > 100 µM
PC-3 prostate
  TGI: > 100 µM
RPMI-8226 leukemia
  TGI: > 100 µM
SF-268 CNS
  TGI: > 100 µM
SF-295 CNS
  TGI: > 100 µM
SF-539 CNS
  GI50: > 100 µM
  TGI: > 100 µM
SK-MEL-2 melanoma
  TGI: > 100 µM
SK-MEL-28 melanoma
  TGI: > 100 µM
SK-MEL-5 melanoma
  TGI: > 100 µM
SK-OV-3 ovarian
  TGI: > 100 µM
SN12C renal
  GI50: > 100 µM
  TGI: > 100 µM
SNB-19 CNS
  TGI: > 100 µM
SR leukemia
  TGI: > 100 µM
SW-620 colon
  TGI: > 100 µM
T-47D breast
  TGI: 11 µM
TK-10 renal
  TGI: > 100 µM
U251 CNS
  TGI: > 100 µM
UACC-257 melanoma
  TGI: > 100 µM
UACC-62 melanoma
  GI50: 56.8 µM
  TGI: > 100 µM
UO-31 renal
  TGI: > 100 µM

## CC(=O)c1c2c(cc3c1CC1(Cc4cc5c(cc4C1=O)CCC5)C3)CCC2 (centres undefined)
786-0 renal
  TGI: > 100 µM
A498 renal
  TGI: > 100 µM
A549 NSCLC
  TGI: > 100 µM
ACHN renal
  TGI: > 100 µM
BT-549 breast
  TGI: > 100 µM
CAKI-1 renal
  TGI: > 100 µM
CCRF-CEM leukemia
  TGI: > 73.7 µM
COLO 205 colon
  TGI: > 100 µM
DU-145 prostate
  TGI: > 100 µM
EKVX NSCLC
  TGI: > 100 µM
HCC-2998 colon
  TGI: > 100 µM
HCT-116 colon
  TGI: > 100 µM
HCT-15 colon
  TGI: > 100 µM
HL-60(TB) leukemia
  TGI: > 59.4 µM
HOP-62 NSCLC
  TGI: > 100 µM
HS 578T breast
  TGI: > 100 µM
HT29 colon
  TGI: > 100 µM
IGROV1 ovarian
  TGI: > 100 µM
K-562 leukemia
  TGI: > 100 µM
KM12 colon
  TGI: > 100 µM
LOX IMVI melanoma
  TGI: > 100 µM
M14 melanoma
  TGI: > 100 µM
MALME-3M melanoma
  TGI: > 100 µM
MCF7 breast
  TGI: > 100 µM
MDA-MB-231 breast
  TGI: > 100 µM
MDA-MB-435
  TGI: > 100 µM
MDA-N
  TGI: > 100 µM
MOLT-4 leukemia
  TGI: > 100 µM
NCI-H226 lung
  TGI: > 100 µM
NCI-H23 lung
  TGI: > 100 µM
NCI-H460 lung
  TGI: > 100 µM
NCI-H522 lung
  TGI: > 100 µM
NCI/ADR-RES ovarian
  TGI: > 100 µM
OVCAR-3 ovarian
  TGI: > 100 µM
OVCAR-4 ovarian
  TGI: > 100 µM
OVCAR-5 ovarian
  TGI: > 100 µM
OVCAR-8 ovarian
  TGI: > 100 µM
PC-3 prostate
  TGI: > 100 µM
RPMI-8226 leukemia
  TGI: > 92.9 µM
SF-268 CNS
  TGI: > 100 µM
SF-295 CNS
  TGI: > 100 µM
SF-539 CNS
  TGI: > 100 µM
SK-MEL-2 melanoma
  TGI: > 100 µM
SK-MEL-28 melanoma
  TGI: > 100 µM
SK-MEL-5 melanoma
  TGI: > 69.4 µM
SK-OV-3 ovarian
  TGI: > 100 µM
SN12C renal
  TGI: > 100 µM
SNB-19 CNS
  TGI: > 100 µM
SNB-75 CNS
  TGI: > 100 µM
SR leukemia
  TGI: > 100 µM
SW-620 colon
  TGI: > 100 µM
T-47D breast
  TGI: > 100 µM
TK-10 renal
  TGI: > 100 µM
U251 CNS
  TGI: > 100 µM
UACC-257 melanoma
  TGI: > 100 µM
UACC-62 melanoma
  TGI: > 100 µM
UO-31 renal
  TGI: > 100 µM
